Laboratory results taken from patent publication US12336981B2, “Compounds and compositions for the inhibition of NAMPT” (Valo Health, Inc., priority 2010, dated 2025).
Like-named read-outs stand apart in the source and are kept apart here.

Legend:
[1] = target: T1, NAMPT (Homo sapiens, UniProt P43490); assay: Biochemical inhibition assay: NAMPT enzymatic reaction, NMN quantified by mass spectrometry; details: read-out: Biochem IC50
T1 construct: His tag; host or cells: E. coli
How it was run: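 Inhibition of E. coli-expressed His-tagged human NAMPT, measured as NMN formation by mass spectrometry after a 30 min room-temperature reaction containing 1 μM NAM, 100 μM PRPP and 2.5 mM ATP.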

[2] = system: A2780 cells; assay: In-vitro cell proliferation assay (SRB), A2780 cells; format: cell-based; details: A2780 cells, 72 hours, read-out: A2780 IC50
How it was run: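 Proliferation is assessed by sulforhodamine B staining following a 72-hour incubation with compound dilutions containing 0.1% DMSO.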

[3] = Homo sapiens, A2780, 72 h, SRB assay

T1 sequence (P43490 whole entry): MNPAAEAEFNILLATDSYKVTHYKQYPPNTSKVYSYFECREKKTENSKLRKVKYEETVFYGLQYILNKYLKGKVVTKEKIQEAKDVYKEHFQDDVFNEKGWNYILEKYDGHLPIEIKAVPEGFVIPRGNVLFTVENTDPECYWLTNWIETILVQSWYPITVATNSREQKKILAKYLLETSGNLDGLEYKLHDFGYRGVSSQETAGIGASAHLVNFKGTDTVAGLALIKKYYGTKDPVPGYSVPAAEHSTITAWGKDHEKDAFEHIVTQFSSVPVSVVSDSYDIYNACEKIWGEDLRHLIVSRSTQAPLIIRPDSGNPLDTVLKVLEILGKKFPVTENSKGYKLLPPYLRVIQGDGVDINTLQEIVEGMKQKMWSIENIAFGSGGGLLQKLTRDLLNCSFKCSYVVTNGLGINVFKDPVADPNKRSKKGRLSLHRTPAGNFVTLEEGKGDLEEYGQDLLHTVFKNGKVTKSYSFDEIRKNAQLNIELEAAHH

Row | Structure (SMILES) | IC50 ([1]; NAMPT enzymatic assay) | IC50 ([2]; Homo sapiens, A2780, 72 h, SRB) | IC50 ([1]; NAMPT enzymatic reaction) | IC50 ([2]; SRB) | IC50 [2, 3]
1 | COc1c(C(F)(F)F)cccc1S(=O)(=O)c1ccc(CNC(=O)c2cc3ccncc3s2)cc1 | 9.4 nM | 12.8 nM |  |  | 
2 | O=C(NCc1ccc(S(=O)(=O)c2ccc3nc(C(F)(F)F)cn3c2)cc1)c1cc2ccncc2s1 [N-({4-[2-(trifluoromethyl)imidazo[1,2-a]pyridine-6-sulfonyl]phenyl}methyl)thieno[2,3-c]pyridine-2-carboxamide] | 3.1 nM | 3.9 nM |  |  | 
3 | CN(C)CCc1cccc(S(=O)(=O)c2ccc(CNC(=O)c3cc4cnccc4[nH]3)cc2)c1 | 29.2 nM | 22.3 nM |  |  | 
4 | COc1ccc(S(=O)(=O)c2ccc(CNC(=O)c3cc4ccncc4o3)cc2)c(C)c1 [N-({4-[(4-methoxy-2-methylbenzene)sulfonyl]phenyl}methyl)furo[2,3-c]pyridine-2-carboxamide] |  | 35.1 nM | 21.6 nM |  | 
5 | COc1ccc(S(=O)(=O)c2ccc(CNC(=O)c3cnc4nccn4c3)cc2)cc1 |  | 20.7 nM | 2.7 nM |  | 
6 | COc1cc(OC)cc(S(=O)(=O)c2ccc(CNC(=O)c3cnc4[nH]ncc4c3)cc2)c1 |  | 2.2 nM | 2.6 nM |  | 
7 | CCCCOc1cccc(S(=O)(=O)c2ccc(CNC(=O)c3cc4ccncc4s3)cc2)c1 |  | 38.7 nM | 3.3 nM |  | 
8 | CN(C)C(=O)c1ccccc1S(=O)(=O)c1ccc(CNC(=O)c2cc3ccncc3s2)cc1 | 100 to 1000 nM | 100 to 1000 nM |  |  | 
9 | O=C(NCc1ccc(S(=O)(=O)c2ccc(C(F)(F)F)cc2C(F)(F)F)cc1)c1ccc2nccn2c1 | 220 nM | 53.2 nM |  |  | 
10 | COc1ccc(S(=O)(=O)c2ccc(CNC(=O)c3cnc4nccn4c3)cc2)c(Cl)c1 |  | 66.9 nM | 6.5 nM |  | 
11 | Cc1ccc(S(=O)(=O)c2ccc(CNC(=O)c3cnc4nccn4c3)cc2)c(F)c1 |  | 61.4 nM | 6.3 nM |  | 
12 | Cc1cccc(S(=O)(=O)c2ccc(CNC(=O)c3cc4ccncc4o3)cc2)c1F [N-({4-[(2-fluoro-3-methylbenzene)sulfonyl]phenyl}methyl)furo[2,3-c]pyridine-2-carboxamide] |  | 7.9 nM | 6.3 nM |  | 
13 | O=C(NCc1ccc(S(=O)(=O)c2ccc(OC(F)(F)F)cc2)cc1)c1cc2ccncc2o1 | 9.4 nM |  |  | 27.7 nM | 
14 | O=C(NCc1ccc(S(=O)(=O)c2cc(F)cc(Cl)c2)cc1)c1cc2cnccc2[nH]1 |  | 1.4 nM | 9.9 nM |  | 
15 | COc1ccc(C)cc1S(=O)(=O)c1ccc(CNC(=O)c2cnc3nccn3c2)cc1 |  | 7.2 nM | 3.9 nM |  | 
16 | COc1cc(C)cc(OC)c1S(=O)(=O)c1ccc(CNC(=O)c2cc3ccncc3o2)cc1 [N-({4-[(2,6-dimethoxy-4-methylbenzene)sulfonyl]phenyl}methyl)furo[2,3-c]pyridine-2-carboxamide] |  | 23 nM | 5 nM |  | 
17 | O=C(NCc1ccc(S(=O)(=O)c2ccc(F)c(F)c2)cc1)c1cc2ccncc2o1 |  | 13 nM | 16.8 nM |  | 
18 | Cc1ccc(Cl)c(S(=O)(=O)c2ccc(CNC(=O)c3cc4ccncc4o3)cc2)c1 |  | 14.9 nM | 17.8 nM |  | 
19 | O=C(NCc1ccc(S(=O)(=O)c2ccc(-n3cccn3)nc2)cc1)c1ccc2nccn2c1 [N-({4-[6-(1H-pyrazol-1-yl)pyridine-3-sulfonyl]phenyl}methyl)imidazo[1,2-a]pyridine-6-carboxamide] | 4 nM | 1.9 nM |  |  | 
20 | O=C(NCc1ccc(S(=O)(=O)c2cccc(N3CCCCC3)c2)cc1)c1cnc2[nH]ncc2c1 | 53.6 nM | 14 nM |  |  | 
21 | O=C(NCc1ccc(S(=O)(=O)c2cncc(N3CCCC3)c2)cc1)c1ccc2ncsc2c1 [N-({4-[5-(pyrrolidin-1-yl)pyridine-3-sulfonyl]phenyl}methyl)-1,3-benzothiazole-6-carboxamide] | 9.2 nM | 100 to 1000 nM |  |  | 
22 | O=C(NCc1ccc(S(=O)(=O)c2ccc3c(c2)OCCO3)cc1)c1cnc2nccn2c1 [N-{[4-(2,3-dihydro-1,4-benzodioxine-6-sulfonyl)phenyl]methyl}imidazo[1,2-a]pyrimidine-6-carboxamide] | 0.2 nM | 0.5 nM |  |  | 
23 | COc1cc(S(=O)(=O)c2ccc(CNC(=O)c3cc4ccncc4s3)cc2)ccc1F [N-({4-[(4-fluoro-3-methoxybenzene)sulfonyl]phenyl}methyl)thieno[2,3-c]pyridine-2-carboxamide] |  | 3.1 nM | 9 nM |  | 
24 | CCCOc1ccc(S(=O)(=O)c2ccc(CNC(=O)c3cc4ccncc4o3)cc2)cc1F |  | 11.8 nM | 6.8 nM |  | 

Row | Structure (SMILES) | IC50 ([1]; NAMPT enzymatic assay) | IC50 ([2]; Homo sapiens, A2780, 72 h, SRB) | IC50 ([1]; NAMPT enzymatic reaction) | IC50 ([2]; SRB) | IC50 [2, 3]
25 | O=C(NCc1ccc(S(=O)(=O)c2ccc(Cl)cc2C(F)(F)F)cc1)c1cc2cnccc2[nH]1 | 42.2 nM | 17.4 nM |  |  | 
26 | COc1cccc(OC(C)C)c1S(=O)(=O)c1ccc(CNC(=O)c2cc3cnccc3[nH]2)cc1 [N-[(4-{[2-methoxy-6-(propan-2-yloxy)benzene]sulfonyl}phenyl)methyl]-1H-pyrrolo[3,2-c]pyridine-2-carboxamide] |  |  | 36 nM |  | 22 nM
27 | Cc1ccnc(S(=O)(=O)c2ccc(CNC(=O)c3cc4ccncc4o3)cc2)c1 [N-{[4-(4-methylpyridine-2-sulfonyl)phenyl]methyl}furo[2,3-c]pyridine-2-carboxamide] | 19.2 nM | 11.4 nM |  |  | 
28 | Cc1cc(S(=O)(=O)c2ccc(CNC(=O)c3cc4cnccc4[nH]3)cc2)c(C)cc1F |  | 12.8 nM | 51.4 nM |  | 
29 | Cc1cc(C)c(S(=O)(=O)c2ccc(CNC(=O)c3cc4ccncc4o3)cc2)cc1C |  | 14.1 nM | 9.1 nM |  | 
30 | O=C(NCc1ccc(S(=O)(=O)c2cccc(C(F)(F)F)c2)cc1)c1cnc2nccn2c1 | 2.7 nM | 3 nM |  |  | 
31 | O=C(NCc1ccc(S(=O)(=O)c2cnc3ccccc3c2)cc1)c1ccc2nccn2c1 [N-{[4-(quinoline-3-sulfonyl)phenyl]methyl}imidazo[1,2-a]pyridine-6-carboxamide] | 14 nM | 1 nM |  |  | 
32 | O=C(NCc1ccc(S(=O)(=O)c2cc(F)cc(Cl)c2)cc1)c1cnc2nccn2c1 |  | 2.9 nM | 2.4 nM |  | 
33 | Cc1ccc(S(=O)(=O)c2ccc(CNC(=O)c3ccc4nccn4c3)cc2)c(Cl)c1 |  | 0.9 nM | 1.1 nM |  | 
34 | O=C(NCc1ccc(S(=O)(=O)c2cc(CO)ccc2Cl)cc1)c1cc2cnccc2[nH]1 | 8.3 nM | 26.2 nM |  |  | 
35 | CC(C)c1cccc(S(=O)(=O)c2ccc(CNC(=O)c3cc4cnccc4[nH]3)cc2)c1 [N-[(4-{[3-(propan-2-yl)benzene]sulfonyl}phenyl)methyl]-1H-pyrrolo[3,2-c]pyridine-2-carboxamide] |  |  | 6 nM |  | 4 nM
36 | O=C(NCc1ccc(S(=O)(=O)c2ccc(C(F)(F)F)cc2)cc1)c1cnc2[nH]ncc2c1 [N-[(4-{[4-(trifluoromethyl)benzene]sulfonyl}phenyl)methyl]-1H-pyrazolo[3,4-b]pyridine-5-carboxamide] | 19.9 nM | 19.4 nM |  |  | 
37 | CC(C)COc1cccc(S(=O)(=O)c2ccc(CNC(=O)c3cnc4nccn4c3)cc2)c1 | 3.9 nM | 13.2 nM |  |  | 
38 | O=C(NCc1ccc(S(=O)(=O)c2ccc(N3CCOCC3)nc2)cc1)c1cc2ccncc2o1 [N-({4-[6-(morpholin-4-yl)pyridine-3-sulfonyl]phenyl}methyl)furo[2,3-c]pyridine-2-carboxamide] | 2 nM | 0.9 nM |  |  | 
39 | O=C(NCc1ccc(S(=O)(=O)N2CCCCC2)cc1)c1ccc2[nH]ncc2c1 [N-{[4-(piperidine-1-sulfonyl)phenyl]methyl}-1H-indazole-5-carboxamide] |  |  | 18 nM |  | 16 nM
40 | CC(C)COc1cccc(S(=O)(=O)c2ccc(CNC(=O)c3cnc4[nH]ncc4c3)cc2)c1 | 28.5 nM | 34.2 nM |  |  | 
41 | O=C(NCc1ccc(S(=O)(=O)N2CCCCC2)cc1)c1ccn2nnnc2c1 [N-{[4-(piperidine-1-sulfonyl)phenyl]methyl}-[1,2,3,4]tetrazolo[1,5-a]pyridine-7-carboxamide] |  |  | 3 nM |  | 9 nM
42 | O=C(NCc1ccc(S(=O)(=O)c2ccc(-c3ccccc3)cc2)cc1)c1cc2ccncc2o1 [N-({4-[(4-phenylbenzene)sulfonyl]phenyl}methyl)furo[2,3-c]pyridine-2-carboxamide] |  | 6.9 nM | 3.7 nM |  | 
43 | COc1ccc(S(=O)(=O)c2ccc(CNC(=O)c3cc4ccncc4s3)cc2)cc1C [N-({4-[{4-methoxy-3-methylbenzene)sulfonyl]phenyl}methyl)thieno[2,3-c]pyridine-2-carboxamide] |  |  | 3 nM |  | 2.4 nM
44 | COc1ccccc1S(=O)(=O)c1ccc(CNC(=O)c2cc3ccncc3s2)cc1 [N-({4-[(2-methoxybenzene)sulfonyl]phenyl}methyl)thieno[2,3-c]pyridine-2-carboxamide] |  |  | 7 nM |  | 5.3 nM
45 | O=C(NCc1ccc(S(=O)(=O)c2cccc3c2Oc2ccccc2S3)cc1)c1cc2cnccc2[nH]1 [N-{[4-(phenoxathiine-4-sulfonyl)phenyl]methyl}-1H-pyrrolo[3,2-c]pyridine-2-carboxamide] |  |  | 5 nM |  | 0.9 nM
46 | O=C(NCc1ccc(S(=O)(=O)c2ccc(N3CCOCC3)cc2)cc1)c1cnc2[nH]ncc2c1 [N-[(4-{[4-(morpholin-4-yl)benzene]sulfonyl}phenyl)methyl]-1H-pyrazolo[3,4-b]pyridine-5-carboxamide] | 4.45 nM | 2.47 nM |  |  | 
47 | O=C(NCc1ccc(S(=O)(=O)c2cccc3cc[nH]c23)cc1)c1cc2ccncc2s1 [N-{[4-(1H-indole-7-sulfonyl)phenyl]methyl}thieno[2,3-c]pyridine-2-carboxamide] |  |  | 3 nM |  | 2.7 nM
48 | CCCOc1ccc(S(=O)(=O)c2ccc(CNC(=O)c3ccc4nccn4c3)cc2)cc1Cl |  | 6 nM | 6.5 nM |  | 
